Results taken from patent publication US20190161418A1, “OIL-SOLUBLE PLANT MICRONUTRIENTS” (Huntsman Petrochemical LLC, priority 2016, published 2019).

Test system: corn seedlings
Assay: Zinc uptake measurements in corn seedlings (foliar spray, ICP-MS)
Assay type: in vivo
Conditions: corn seedling aerial tissue 48 hours after spray; normalized to water control (set as 1); average of two trials; ZnSO4 1 lb Zn/acre, Zn-LAS/MSO and Zn-EDTA 0.15 lb Zn/acre, Ca-LAS/MSO 1.07 g/L
Procedure: In this example, the Zn salt of linear alkylbenzene sulfonate from example 1 was sprayed on corn seedlings that were grown in potting soil and zinc uptake into the plant leaves was measured and compared to uptake of other forms of zinc as described below. The samples that were analyzed were prepared by spraying the leaves with the particular formulation, drying the leaves after spraying, grinding the leaves, digesting them in aqua regia and measuring the concentration of zinc in solution by inductively coupled plasma mass spectrometry (ICP-MS). Spray treatment formulations were prepared as follows, based on an average delivery of 3.3 mL solution per 4 inch square pot (16 in^2 treated area): • a) deionized water only • b) Ca-LAS/MSO: 1.07 g/L in deionized water • c) ZnSO4: 1.02 g/L ZnSO4 in deionized water to approximate the recommended use rate of 1 lb Zn in 20 gallons solution per acre • d) Zn-LAS/MSO (5% w/w Zn, density 1.02 g/mL): 1.07 g/L in deionized water to approximate a use rate of 0.15 lb Zn in 20 gallons solution per acre • e) Zn-EDTA (9% w/w Zn, density 1.31 g/mL): 0.59 g/L in deionized water to approximate the recommended use rate of 0.15 lb Zn in 20 gallons solution per acre.
After 48 hours of incubation, each seedling was cut just above the soil line and the aerial tissue was used for analysis. […]

O=S(=O)([O-])[O-].[Zn+2] [ZnSO4]
Relative Zinc Concentration: 2.01
